How the values were obtained:
[1] = molecular target: T1, Thymidine kinase, cytosolic (Rattus norvegicus, UniProt P27158); assay: Competitive inhibition against rat cytoplasmic Thymidine kinase
T1 sequence (P27158 whole entry): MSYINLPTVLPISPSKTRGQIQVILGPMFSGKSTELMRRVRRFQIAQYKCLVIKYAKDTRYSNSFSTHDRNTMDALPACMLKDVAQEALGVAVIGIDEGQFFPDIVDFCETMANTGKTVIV

[2] = molecular target: T2, Thymidine kinase, cytosolic (Rattus norvegicus) (UniProt P27158); assay: Affinity towards cytoplasmic Thymidine kinase relative ot TdR.
T2 sequence (whole entry): T1 sequence (P27158 whole entry)

Rattus norvegicus = organism: Rattus norvegicus; assay: Differential affinity is the ratio between M-TK and C-TK
Thymidine kinase 2 = molecular target: T3, Thymidine kinase 2 (Rattus norvegicus, UniProt D3ZGQ2); assay: Competitive inhibition against rat mitochondrial thymidine kinase
T3 sequence (D3ZGQ2 whole entry): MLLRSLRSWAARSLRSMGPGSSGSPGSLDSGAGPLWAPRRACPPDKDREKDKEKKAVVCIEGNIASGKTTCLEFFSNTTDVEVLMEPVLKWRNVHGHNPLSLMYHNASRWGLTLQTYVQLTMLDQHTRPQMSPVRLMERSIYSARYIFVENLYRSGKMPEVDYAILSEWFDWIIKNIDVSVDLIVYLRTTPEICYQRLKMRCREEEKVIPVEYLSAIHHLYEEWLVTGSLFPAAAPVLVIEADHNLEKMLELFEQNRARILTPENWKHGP

[3] = molecular target: T4, Thymidine kinase 2 (Rattus norvegicus) (UniProt D3ZGQ2); assay: Affinity towards mitochondrial thymidine kinase relative to TdR.
T4 sequence (whole entry): T3 sequence (D3ZGQ2 whole entry)

[4] = molecular target: T4, Thymidine kinase 2 (Rattus norvegicus); assay: Ability to inhibit rat mitochondrial thymidine kinase; set-up: concentration or dose not given beside the values; details: concentration not given here
[5] = molecular target: T2, Thymidine kinase, cytosolic (Rattus norvegicus); assay: Ability to inhibit rat cytoplasmic Thymidine kinase; set-up: concentration or dose not given beside the values; details: concentration not given here
[6] = molecular target: T2, Thymidine kinase, cytosolic (Rattus norvegicus); assay: (§1) Competitive inhibition against rat cytoplasmic thymidine kinase; set-up: concentration or dose not given beside the values; details: concentration not given here
[7] = molecular target: T2, Thymidine kinase, cytosolic (Rattus norvegicus); assay: Affinity towards cytoplasmic thymidine kinase relative ot TdR; expressed as KM (TdR)/Ki
[8] = molecular target: T1, Thymidine kinase, cytosolic; assay: as §1
[9] = molecular target: T1, Thymidine kinase, cytosolic; assay: Affinity towards cytoplasmic Thymidine kinase relative ot TdR; expressed as KM (TdR)/Ki

Row | Ki [1] | Relative affinity [2] | Differential affinity (Rattus norvegicus) | Ki (Thymidine kinase 2) | Relative affinity [3] | inhibition [4] | inhibition [5] | SMILES | also measured
1 | 11400 µM | – | – | – | – | – | – | Nc1nc(=O)n([C@H]2C[C@H](O)[C@@H](CO)O2)cc1I [IBACITABINE] | –
2 | 50 µM | 0.032 | 1 | 250 µM | 0.032 | – | – | CSc1cn([C@H]2C[C@H](O)[C@@H](CO)O2)c(=O)[nH]c1=O | –
3 | 380 µM | 0.0042 | 0.74 | 2600 µM | 0.0031 | – | – | Cc1cn([C@H]2C[C@H](N)[C@@H](CO)O2)c(=O)[nH]c1=O [3-AMINO- 3-DEOXYTHYMIDINE] | –
4 | – | – | – | – | – | 53% | 95% | CCCCNCC1OC(n2cc(C)c(=O)[nH]c2=O)CC1O (stereo unspecified) | –
5 | – | – | < 0.022 | – | – | – | – | Cc1cn([C@H]2C[C@H](O)[C@@H](CO)O2)c(=O)n(C)c1=O | –
6 | – | – | – | – | – | 24% | – | CO[C@H]1C[C@H](n2ccc(N)nc2=O)O[C@@H]1CO | inhibition [6]: 3%
7 | – | – | < 4.8 | – | – | – | – | CC(=O)NC1CC(n2cc(C)c(=O)[nH]c2=O)OC1CO (stereo unspecified) | –
8 | – | – | 2.7 | 3250 µM | – | – | – | Cc1cn([C@H]2C=C[C@@H](CO)O2)c(=O)[nH]c1=O [STAVUDINE] | –
9 | 35 µM | 0.046 | 0.18 | 960 µM | 0.0083 | – | – | CCCCCCNCC1OC(n2cc(C)c(=O)[nH]c2=O)CC1O (stereo unspecified) | –
10 | 2 µM | – | – | – | – | – | – | CCOC1N([C@H]2C[C@H](O)[C@@H](CO)O2)C(=O)NC(=O)C1(C)Br (stereo in doubt; 4b) [listing 1 of 2 here] | –
11 | 3.9 µM | – | – | 11 µM | – | – | – | CCOC1N([C@H]2C[C@H](O)[C@@H](CO)O2)C(=O)NC(=O)C1(C)Br (stereo in doubt; 4c) [listing 1 of 2 here] | –
12 | – | – | – | 320 µM | 0.025 | 58% | 7% | Nc1ccn([C@H]2C[C@H](O)[C@@H](CO)O2)c(=O)n1 [DOXECITINE] | –
13 | – | 0.8 | 0.91 | – | 0.73 | – | – | CCOC1N([C@H]2C[C@H](O)[C@@H](CO)O2)C(=O)NC(=O)C1(C)Br (stereo in doubt; 4b) [listing 2 of 2 here] | –
14 | – | – | – | – | – | 3% | 30% | NCc1cn([C@H]2C[C@H](O)[C@@H](CO)O2)c(=O)[nH]c1=O | –
15 | – | – | – | – | – | 11% | 0% | CC(=O)Nc1cn([C@H]2C[C@H](O)[C@@H](CO)O2)c(=O)[nH]c1=O | –
16 | – | – | – | 77 µM | 0.1 | 83% | – | CC1CN([C@H]2C[C@H](O)[C@@H](CO)O2)C(=O)NC1=O (stereo partly specified) | inhibition [6]: 53%
17 | 36 µM | 0.044 | 0.17 | 1100 µM | 0.0073 | – | – | CCCCCn1c(=O)c(C)cn([C@H]2C[C@H](O)[C@@H](CO)O2)c1=O | –
18 | – | – | – | – | – | 19% | – | CCC(=O)O[C@H]1C[C@H](n2ccc(N)nc2=O)O[C@@H]1CO | inhibition [6]: 8%
19 | – | – | – | – | – | 22% | 11% | CCSCC1OC(n2cc(C)c(=O)[nH]c2=O)CC1O (stereo unspecified) | –
20 | – | – | – | – | – | 4% | – | Cn1c(=O)ccn([C@H]2C[C@H](O)[C@@H](CO)O2)c1=O | inhibition [6]: 62%

Row | Ki [1] | Relative affinity [2] | Differential affinity (Rattus norvegicus) | Ki (Thymidine kinase 2) | Relative affinity [3] | inhibition [4] | inhibition [5] | SMILES | also measured
21 | – | – | 3.2 | – | 0.14 | – | – | CCO[C@H]1C[C@H](n2cc(C)c(=O)[nH]c2=O)O[C@@H]1CO | Relative affinity [7]: 0.044; Ki [8]: 36 µM
22 | – | – | – | – | – | 5% | 7% | CCNc1ccn([C@H]2C[C@H](O)[C@@H](CO)O2)c(=O)n1 | –
23 | – | 0.05 | 0.04 | – | > 0.002 | 10% | – | Cc1cn([C@H]2C[C@H](O)[C@@H](CO)O2)c(=O)n(Cc2ccccc2)c1=O | Ki [8]: 320 µM
24 | – | – | – | – | – | 7% | – | CC[S+]([O-])CC1OC(n2cc(C)c(=O)[nH]c2=O)CC1O (stereo unspecified) | inhibition [6]: 4%
25 | 400 µM | 0.004 | 2.3 | 880 µM | 0.0091 | – | – | Cc1cn([C@H]2CC[C@@H](CO)O2)c(=O)[nH]c1=O | –
26 | – | – | – | – | – | 74% | 90% | O=c1ccn([C@H]2C[C@H](O)[C@@H](CO)O2)c(=O)[nH]1 | –
27 | 40 µM | 0.04 | 0.14 | 1440 µM | 0.0056 | – | – | CCNCC1OC(n2cc(C)c(=O)[nH]c2=O)CC1O (stereo unspecified) | –
28 | – | – | – | – | – | 13% | 1% | Nc1ccn([C@@H]2O[C@H](CO)[C@@H](O)[C@H]2O)c(=O)n1 | –
29 | – | – | – | – | – | 4% | 4% | O=c1ccn([C@@H]2O[C@H](CO)[C@@H](O)[C@H]2O)c(=O)[nH]1 | –
30 | 820 µM | 0.002 | – | – | – | 22% | 49% | Cc1cn(C2CC(O)C(CSCCO)O2)c(=O)[nH]c1=O (stereo unspecified) | –
31 | 2.4 µM | 0.67 | 0.0025 | 4600 µM | 0.0017 | – | – | Cc1cn([C@H]2C[C@H](O)[C@@H](CN)O2)c(=O)[nH]c1=O | –
32 | 24 µM | 0.067 | 1.9 | 62 µM | 0.13 | – | – | CCSC1CC(n2cc(C)c(=O)[nH]c2=O)OC1CO (stereo unspecified) | –
33 | – | – | – | – | – | 25% | 40% | Cc1cn(C2CC(O)C(CSCCC(=O)O)O2)c(=O)[nH]c1=O (stereo unspecified) | –
34 | 2100 µM | 0.00076 | 7.9 | – | 0.006 | – | – | Cc1cn([C@H]2C[C@H](O)[C@@H](CO)O2)c(=O)nc1N | –
35 | 370 µM | 0.0043 | 26 | 72 µM | 0.11 | – | – | Nc1cn([C@H]2C[C@H](O)[C@@H](CO)O2)c(=O)[nH]c1=O | –
36 | – | – | – | – | – | 19% | 20% | CC(=O)NCC1OC(n2cc(C)c(=O)[nH]c2=O)CC1O (stereo unspecified) | –
37 | 15500 µM | – | – | – | – | – | – | C/C=C/c1cn([C@H]2C[C@H](O)[C@@H](CO)O2)c(=O)[nH]c1=O | –
38 | – | 0.133 | 7.5 | 8 µM | 1 | – | – | Cc1cn([C@H]2C[C@H](OCc3ccccc3)[C@@H](CO)O2)c(=O)[nH]c1=O | Ki [8]: 12 µM
39 | – | 0.41 | 1.8 | – | 0.73 | – | – | CCOC1N([C@H]2C[C@H](O)[C@@H](CO)O2)C(=O)NC(=O)C1(C)Br (stereo in doubt; 4c) [listing 2 of 2 here] | –
40 | – | – | – | – | – | 36% | 48% | Cc1cn(C2CC(O)C(CSCCCC(=O)O)O2)c(=O)[nH]c1=O (stereo unspecified) | Ki [9]: 3600 µM
